Results on two molecules are retold here after US20100234417A1, “THYROTROPIN RELEASING HORMONE RECEPTOR-OREXIN RECEPTOR HETERO-DIMERS/-OLIGOMERS” (DIMERIX BIOSCIENCE PTY LTD., priority 2006, published 2010).

The target in this assay is T1, thyrotropin releasing hormone receptor (TRHR) (Rattus norvegicus, UniProt Q01717).
T1 construct: expressed in transfected cells; host or cells: HEK293 (HEK293FT)
T1 sequence (Q01717 1-412): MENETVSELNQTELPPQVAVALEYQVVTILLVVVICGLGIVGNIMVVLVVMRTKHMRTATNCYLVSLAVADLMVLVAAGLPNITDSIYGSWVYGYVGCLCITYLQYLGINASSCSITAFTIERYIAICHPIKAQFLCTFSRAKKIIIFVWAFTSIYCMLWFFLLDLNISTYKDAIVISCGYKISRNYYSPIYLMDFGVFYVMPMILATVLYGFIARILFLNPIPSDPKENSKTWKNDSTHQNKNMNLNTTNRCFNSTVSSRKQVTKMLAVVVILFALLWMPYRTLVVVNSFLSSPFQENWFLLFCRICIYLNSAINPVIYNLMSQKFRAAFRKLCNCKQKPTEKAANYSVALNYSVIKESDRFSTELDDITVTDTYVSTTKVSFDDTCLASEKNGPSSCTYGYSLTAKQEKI
Nature of the assay: eBRET/BRET beta-arrestin recruitment to TRHR/Rluc without IG3 (pcDNA3) in HEK293 cells. It is filed as cell-based. From the text: Briefly, referring to FIGS. 1 to 3, the IGs are provided in the form of the two receptors (TRHR and OxR). One of the two is attached to an RC (IG1-RC1, IG3). A second IG (IG2-RC2) is derived from a molecule that interacts with the receptors upon ligand binding (e.g. beta-arrestin, or a mutant thereof). The detection system not only detects the formation of the TRHR-OxR heterodimer but can distinguish whether a ligand or drug acts as an agonist, partial agonist, antagonist, inverse agonist or partial inverse agonist at the receptor hetero-dimer.
Cells were seeded in 6-well plates at a density of approximately 630,000 cells/well (HEK293FT) or approximately 150,000 cells/well (COS-7) and maintained at 37° C., 5% CO2 in Complete Media (DMEM containing 0.3 mg/ml glutamine, 100 IU/ml penicillin and 100 μg/ml streptomycin (Gibco)) supplemented with 10% fetal calf serum (FCS; Gibco). Transient transfections were carried out 24 h after seeding using GeneJuice (Novagen) or Metafectene (Biontex) according to manufacturer instructions. 24 h post-transfection, cells were washed with PBS, detached using 0.05% trypsin/0.53 mM EDTA, resuspended in HEPES-buffered phenol red free Complete Media containing 5% FCS and added to a poly-L-lysine-coated white microplate (Nunc). 48 h post-transfection, eBRET assays were carried out following pre-incubation of cells with EnduRen™ (Promega) at a final concentration of 30-40 μM, at 37° C., 5% CO2 for 2 h. For original BRET studies, the HEPES-buffered phenol red free Complete Media was replaced with PBS and coelenterazine h (Molecular Probes) added to a final concentration of 5 μM immediately prior to commencing the assay. BRET measurements were taken at 37° C. using the Victor Light plate reader with Wallac 1420 software (Perkin-Elmer). Filtered light emissions were sequentially measured for 3-5 s in each of the ‘donor wavelength window’ (400-475 nm) and ‘acceptor wavelength window’ (>500 nm for EGFP or 520-540 nm for EYFP, Topaz (TYFP) or Venus). The BRET signal observed between interacting proteins is normalized by subtracting the background BRET ratio. This can be done in one of two ways (see Pfleger et al. (2006) Cell Signal 18, 1664-1670; Pfleger et al. (2006) Nat Protoc 1, 336-344): 1) the ratio of light emission through the acceptor wavelength window over the 400-475 nm emission for a cell sample containing only the donor construct is subtracted from the same ratio for a sample containing the interacting acceptor and donor fusion proteins; 2) the ratio of light emission through the ‘acceptor wavelength window’ over the 400-475 nm emission for a cell sample treated with vehicle is subtracted from the same ratio for a second aliquot of the same cell sample treated with ligand. In the following examples, the first calculation will be used, unless the signal is described as the ‘ligand-induced BRET ratio’. Alternatively, and particularly when illustrating z-factor data (Zhang et al. (1999) J Biomol Screen 4, 67-73), the BRET signal observed between interacting proteins can be shown in conjunction with (as oppose to being subtracted by) the background BRET ratio to evaluate error associated with the BRET signal observed between interacting proteins and the error associated with the background BRET ratio independently. In this case, data are shown as ‘fluorescence/luminescence’ being the ratio of light emission through the ‘acceptor wavelength window’ over the 400-475 nm emission for a particular cell sample. Unless otherwise stated, BRET signals were measured in 96-well microplates.
Referring now to FIG. 4, eBRET signals were measured from cells transiently co-expressing TRHR/Rluc and barr2/Venus with either pcDNA3, OxR2, CXCR2, HA-MC3R, HA-MC4R, D2LR or D2SR following the treatment of each with their respective ligands.
Referring now to FIG. 5, eBRET signals were measured from cells transiently co-expressing TRHR/Rluc and EGFP/barr1 or EGFP/barr2 with either pcDNA3 or OXR2. […]
On the technique in general: In BRET a luciferase serves as donor, and the signal depends on an acceptor being close.

Where [1] appears, read: TRHR/Rluc only (no OxR2) + EGFP/barr1 or EGFP/barr2, FIG. 5.

Ends that are not written are not given here.

`NC(=O)[C@@H]1CCCN1C(=O)[C@H](Cc1cnc[nH]1)NC(=O)[C@@H]1CCC(=O)N1` [TRH, pGlu-His-Pro-NH2]: for the setting “HEK293, TRHR/Rluc + barr2/Venus + pcDNA3, ligand 10^−6M, 37 C, FIG. 4”, the eBRET signal peak result was “greater than 0.17”. The “time to eBRET signal peak” value (HEK293, TRHR/Rluc + barr2/Venus + pcDNA3, ligand 10^−6M, FIG. 4) is recorded as “Within the first minute”. Moreover, the “dose-response Hill slope” value (TRHR/Rluc + barr2/Venus + pcDNA3, FIG. 10) is “approximately 1”. The eBRET signal result is on record as “rapid increase in eBRET signal reaching a peak in the first few minutes” (TRHR/Rluc only (no HA-OxR2), FIG. 7); “rapid increase in eBRET signal reaching a peak in the first few minutes” (TRHR/Rluc only (no OxR2) + EGFP/barr1 or EGFP/barr1R169E, FIG. 8); “rapid stimulation of the eBRET signal” under setting [1]. Further, where the note is “TRHR/Rluc only (no OxR2), FIG. 8”, the “eBRET signal with EGFP/barr1R169E relative to EGFP/barr1” value is listed as “lower than that for EGFP/barr1”.

With “OxA: orexin A; known orexin receptor modulator, used as IG3 ligand (modulator) (QPLPDCCRQKTCSCRLYELLHGAGNHAAGILTL; ends and bridges not checked; cysteine pairing not given here; UniProt O43612 34-66, looked up)”, the eBRET signal entry (OxA added to cells lacking HA-OxR2, FIG. 7) is listed as “No increase in eBRET signal above baseline”. The “cumulative eBRET signal” value (TRHR/Rluc + EGFP/barr1, 0 μg OxR2 DNA/well, 10^−6M OxA, 83 mins, FIG. 16) is on record as “no signal was recorded”. The “effect of OxA on TRH-induced eBRET signal” value under setting [1] is on record as “no difference”.
